Measured values published in patent US20120128580A1, “PRESELECTION OF SUBJECTS FOR THERAPEUTIC TREATMENT WITH ELESCLOMOL BASED ON HYPOXIC STATUS” (SYNTA PHARMACEUTICALS CORP., priority 2010, published 2012).

What was measured:
[1] = Half-life of elesclomol in humans; type: in vivo; conditions: administered alone or with other chemotherapeutic agents
Description: Elesclomol has been tested or has been approved for testing in clinical trials for treatment of metastatic melanoma, prostate cancer, solid tumors, recurrent or persistent ovarian epithelial cancer, fallopian tube cancer, and primary peritoneal cancer. The half-life of elesclomol in humans has been determined to be about an hour when administered alone or with other chemotherapeutic agents (e.g., with paxitaxel or carboplatinin).

cancer = experiment: Treatment outcomes by level of hypoxia in historical samples; type: in vivo, human
Method: An analysis using samples collected from subjects during treatment is performed to determine the efficacy of elesclomol for the treatment of cancer based on the level of hypoxia of the tumor based on markers assessed prior to and/or during the treatment of the subjects. […] The samples are analyzed for the level of hypoxia based on the amount or activity of a marker present. […] Various portions of the tumor tissue can also be analyzed when sufficient material is available, e.g., adjacent to the necrotic core, in the center of the tumor, adjacent to or including tumor vasculature, adjacent to normal tissue, etc. One or more markers of hypoxia are measured in each of the subjects, e.g., at least one isoform or subunit of lactate dehydrogenase (LDH) or hypoxia inducible factor (HIF); at least one pro-angiogenic form of vascular endothelial growth factor (VEGF), phosphorylated VEGF receptor (pKDR) 1, 2, or 3, neurolipin 1 (NRP-1), pyruvate dehydrokinase (PDH-K), and ornithine decarboxylase (ODC). […]

[2] = tested on: relapsed or refractory acute myeloid leukemia (AML); experiment: Trial of elesclomol sodium in relapsed or refractory AML with low LDH; type: in vivo, human; conditions: baseline serum LDH ≤0.8 ULN, elesclomol sodium once-weekly, starting dose 200 mg/m^2
Method: Subjects are identified as having one of relapsed or refractory acute myeloid leukemia (AML). A subject is selected as being candidate for treatment with elesclomol based on appropriate inclusion or exclusion criteria. Routine assessments are made prior to treatment to characterize the disease state of the subject including, but not limited to, imaging studies, hematological studies, and physical examination. Additionally, coded serum sample from the subject is tested to determine the LDH level.
This trial is expected to be sufficiently powered with the enrollment of 36 patients with relapsed or refractory AML and total baseline serum LDH level less-than or equal to 0.8 upper limit of normal (ULN). Patients are treated with elesclomol sodium on a once-weekly schedule at a starting dose of 200 mg/m^2, with dose escalation planned based on safety and tolerability. The primary endpoints are to characterize the safety and tolerability of elesclomol sodium and to determine the pharmacokinetics of elesclomol and its metabolites in this patient population. Secondary endpoints include assessing the activity of elesclomol as a monotherapy in the treatment of AML.

Compound: CN(NC(=O)CC(=O)NN(C)C(=S)c1ccccc1)C(=S)c1ccccc1 [Elesclomol, N-malonyl-bis(N′-methyl-N′-thiobenzoylhydrazide)]
- half-life [1]: about an hour
- response of subjects with a low level of hypoxia compared to a high level of hypoxia (cancer): better response
- response of subjects with low levels of hypoxia versus historical control populations [2]: respond better
